Experimental data from patent US6638921B1, “Pyridoxal-5-phosphate derivatives as HIV integrase inhibitors” (Pharmacor Inc., priority 2002, dated 2003).
Structures can show the parent of a compound that is named as a salt. Where two headings read alike, the source gives them in different places.

Tests used:
[1] = system: HIV-1 laboratory viral strain NL4.3; experiment: Anti-viral assay in vitro (MTT, infected MT-4 cells); assay type: cell-based; conditions: reduce virus replication in cell culture by 50%, six days
Method: (§1) To evaluate the EC50 of our compounds, various drug concentrations are incubated with the infected cell for six days and then the metabolic activity of the cells is monitored by the MTT assay. (See A. J. Japour et al, Antimicrobial Agents and Chemotherapy, 37, 1095-1101, 1993 and R. Pauwels et al. Journal of Virological Methods, 20, 309-321, 1988).
(§2) We use the laboratory viral strain NL4.3 as wild type virus and the cell line used is MT-4 which is a T-cell line highly sensitive to HIV-1. We also use some WT clinical strains. To address the resistance issue we assay the inhibitors with NL4.3 mutants which are designed to be resistant to specific commercially available inhibitors. The following reagents were obtained through the AIDS Research and Reference Reagent Program, division of AIDS, NIAID, NIH: pNL4.3 from Dr. Malcolm Martin; MT-4 cell line from Dr. Douglas Richman. Wild type (WT) clinical strains were obtained from “Laboratoire de santé publique du Québec”.

MT-4 cell line = experiment: Cytotoxicity assay in vitro (MTT, virus omitted); assay type: cell-based
Method: as §1, §2
The same MTT assay is used to evaluate the CCIC50 of our compounds except that the virus is omitted.

HIV-1 integrase = HIV-1 integrase (Human immunodeficiency virus type 1 group M subtype B, UniProt P12497); experiment: HIV-1 integrase inhibition assay in vitro (radiolabeled duplex substrate, U5 end of HIV LTR); assay type: biochemical
Method: For the purpose of Table 1, the HIV-1 integrase inhibition assay was carried out following a known procedure (Burke, Jr. T. R. et al., J. Med. Chem. 38, 4171-4178 (1995)). A suitable radiolabeled duplex substrate corresponding to the U5 end of the HIV LTR was used.

[2] = concentration of drug required to reduce the enzyme activity by 50%, read-out: IC50
[3] = Human immunodeficiency virus 1, MT4, 144 h
[4] = IC50, concentration of drug required to reduce the enzyme activity by 50%

Molecule | IC50 (HIV-1 integrase; [2]) [µM] | EC50 [1, 3] [µM] | CCIC50 (MT-4 cell line; human, 6 days) [µM] | IC50 (HIV-1 integrase; [4]) [µM] | further results
6-[4-(N-(2-E-Caprolactamyl)-N-isobutylsulfamoyl)phenylazo]-pyridoxal-5-phosphate Hydrochloride [Example 5] | 0.6 |  |  |  | EC50 ([1]; read-out: EC50): 17 µM; CCIC50 (MT-4 cell line): >100 µM
Cc1nc(N=Nc2cccc(C(=O)O)c2C)c(COP(=O)(O)O)c(C=O)c1O [Example 1, 6-(3-Carboxy-2-methylphenylazo)-pyridoxal-5-phosphate] |  | 2 | >100 | 1.2 | 
Cc1nc(N=Nc2ccc(S(N)(=O)=O)cc2)c(COP(=O)(O)O)c(C=O)c1O [Example 2, 6-(4-Sulfamoylphenylazo)-pyridoxal-5-phosphate] |  | 5 | >100 | 0.25 | 
Cc1nc(N=Nc2ccc(S(=O)(=O)NC34CC5CC(CC(C5)C3)C4)cc2)c(COP(=O)(O)O)c(C=O)c1O [Example 3, 6-[4-(N-(1-Adamantyl)sulfamoyl)phenylazo]-pyridoxal-5-phosphate Hydrochloride] |  | 19.8 | 12 | 0.2 | 
Cc1nc(N=Nc2cccc(C(=O)NC34CC5CC(CC(C5)C3)C4)c2)c(COP(=O)(O)O)c(C=O)c1O [Example 4, 6-[3-(N-(1-Adamantyl)carbamoyl)phenylazo]-pyridoxal-5-phosphate Hydrochloride] |  | 50 | 13 | 0.4 | 
Cc1nc(N=Nc2cccc(S(=O)(=O)N3CCCCC3)c2)c(COP(=O)(O)O)c(C=O)c1O [Example 6, 6-[3-(1-Piperidinesulfonyl)phenylazo]-pyridoxal-5-phosphate] | 4.37 |  |  |  | 
Cc1nc(N=Nc2ccc(S(=O)(=O)N3CCCCC3)cc2)c(COP(=O)(O)O)c(C=O)c1O [Example 7, 6-[4-(1-Piperidinesulfonyl)phenylazo]-pyridoxal-5-phosphate] |  | 12.5 | >100 | 2.5 | 
Cc1nc(/N=N/c2cccc(C(=O)N3CCCCC3)c2)c(COP(=O)(O)O)c(C=O)c1O [Example 8, 6-[3-(1-Piperidinecarbonyl)phenylazo]-pyridoxal-5-phosphate] | 2.8 |  |  |  | 
Cc1nc(N=Nc2cccc(S(=O)(=O)NC(C)(C)C)c2)c(COP(=O)(O)O)c(C=O)c1O [Example 9, 6-[3-(tert-Butylsulfamoyl)phenylazo]-pyridoxal-5-phosphate] |  | 15 | 57 | 3 | 
Cc1nc(N=Nc2ccc(S(=O)(=O)NC(C)(C)C)cc2)c(COP(=O)(O)O)c(C=O)c1O [Example 10, 6-[4-(tert-Butylsulfamoyl)phenylazo]-pyridoxal-5-phosphate] | 4.25 |  |  |  | 
Cc1nc(N=Nc2ccc(C(=O)NC(C)(C)C)cc2)c(COP(=O)(O)O)c(C=O)c1O [Example 11, 6-[4-(tert-Butylcarbamoyl)phenylazo]-pyridoxal-5-phosphate] | 2.73 |  |  |  | 
Cc1nc(N=Nc2cccc(S(=O)(=O)N3CCCC3)c2)c(COP(=O)(O)O)c(C=O)c1O [Example 12, 6-[3-(1-Pyrrolinesulfonyl)phenylazo]-pyridoxal-5-phosphate] | 2.9 |  |  |  | 
Cc1nc(N=Nc2cccc(C(=O)NCC(C)C)c2)c(COP(=O)(O)O)c(C=O)c1O [Example 13, 6-[3-(Isobutylcarbamoyl)phenylazo]-pyridoxal-5-phosphate] |  | 50 | 90 | 1.3 | 
Cc1nc(N=Nc2ccc(C(=O)NC3CCCCC3)cc2)c(COP(=O)(O)O)c(C=O)c1O [Example 14, 6-[4-(Cyclohexylcarbamoyl)phenylazo]-pyridoxal-5-phosphate] | 4.36 |  |  |  | 
Cc1nc(N=Nc2ccc(S(=O)(=O)N3CCCC3)cc2)c(COP(=O)(O)O)c(C=O)c1O [Example 15, 6-[4-(1-Pyrrolinesulfonyl)phenylazo]-pyridoxal-5-phosphate] | 1.7 |  |  |  | 
Cc1nc(N=Nc2cccc(S(=O)(=O)NCC(C)C)c2)c(COP(=O)(O)O)c(C=O)c1O [Example 16, 6-[3-(Isobutylsulfamoyl)phenylazo]-pyridoxal-5-phosphate] | 1.9 |  |  |  | 
Cc1nc(N=Nc2ccc(S(=O)(=O)NCC(C)C)cc2)c(COP(=O)(O)O)c(C=O)c1O [Example 17, 6-[4-(Isobutylsulfamoyl)phenylazo]pyridoxal-5-phosphate] | 2.45 |  |  |  | 
Cc1nc(N=Nc2ccc(S(=O)(=O)NC3CCCCC3)cc2)c(COP(=O)(O)O)c(C=O)c1O [Example 18, 6-[4-(Cyclohexylsulfamoyl)phenylazo]-pyridoxal-5-phosphate] | 2.2 |  |  |  | 
CCCCNS(=O)(=O)c1cccc(N=Nc2nc(C)c(O)c(C=O)c2COP(=O)(O)O)c1 [Example 19, 6-[3-(Butylsulfamoyl)phenylazo]-pyridoxal-5-phosphate] | 2 |  |  |  | 

Molecule | IC50 (HIV-1 integrase; [2]) [µM] | EC50 [1, 3] [µM] | CCIC50 (MT-4 cell line; human, 6 days) [µM] | IC50 (HIV-1 integrase; [4]) [µM] | further results
CNS(=O)(=O)c1ccc(N=Nc2nc(C)c(O)c(C=O)c2COP(=O)(O)O)cc1 [Example 20, 6-[4-(Methylsulfamoyl)phenylazo]-pyridoxal-5-phosphate] | 1.2 |  |  |  | 
Cc1nc(N=Nc2cccc(S(=O)(=O)NCCO)c2)c(COP(=O)(O)O)c(C=O)c1O [Example 21, 6-[3-(2-Hydroxyethylsulfamoyl)phenylazo]-pyridoxal-5-phosphate] | 2.45 |  |  |  | 
Cc1nc(N=Nc2cc(C(=O)O)cc(C(=O)O)c2)c(COP(=O)(O)O)c(C=O)c1O [Example 22, 6-(3,5-Dicarboxyphenylazo)-pyridoxal-5-phosphate] |  |  | >100 | 0.43 | 
Cc1cc(NS(=O)(=O)c2ccc(N=Nc3nc(C)c(O)c(C=O)c3COP(=O)(O)O)cc2)nc(C)n1 [Example 23] | 2.75 |  |  |  | 
Cc1nc(N=Nc2ccc(S(=O)(=O)Nc3nccs3)cc2)c(COP(=O)(O)O)c(C=O)c1O [Example 24, 6-[4-(2-Thiazolylsulfamoyl)phenylazo]-pyridoxal-5-phosphate] |  | 23 | >100 | 0.365 | 
Cc1nc(N=Nc2ccc(S(=O)(=O)Nc3ncccn3)cc2)c(COP(=O)(O)O)c(C=O)c1O [Example 25, 6-[4-(2-Pyrimidylsulfamoyl)phenylazo]-pyridoxal-5-phosphate] |  | 4.3 | >100 | 0.3 | 
CNS(=O)(=O)c1cccc(N=Nc2nc(C)c(O)c(C=O)c2COP(=O)(O)O)c1 [Example 26, 6-[3-(Methylsulfamoyl)phenylazo]-pyridoxal-5-phosphate] | 3.7 |  |  |  | 
Cc1nc(N=Nc2ccc(S(=O)(=O)Nc3ccon3)cc2)c(COP(=O)(O)O)c(C=O)c1O [Example 32, 6-[4-(3-Isoazolylsulfamoyl)phenylazo]-pyridoxal-5-phosphate] | 3 | 50 |  |  | 
Cc1nc(N=Nc2ccccc2[N+](=O)[O-])c(COP(=O)(O)O)c(C=O)c1O [Example 33, 6-(2-Nitrophenylazo)-pyridoxal-5-phosphate] | 5.25 | 33 |  |  | 
Cc1nc(N=Nc2cccc(Cl)c2)c(COP(=O)(O)O)c(C=O)c1O [Example 34, 6-(3-Chlorophenylazo)-pyridoxal-5-phosphate] | 2.6 | 45 |  |  | 
Cc1nc(N=Nc2cccc(S(N)(=O)=O)c2)c(COP(=O)(O)O)c(C=O)c1O [Example 35, 6-(3-Sulfamoylphenylazo)-pyridoxal-5-phosphate] | 12.8 |  |  |  | 
Cc1nc(N=Nc2cccc(C(=O)NC3=NCCCN3)c2)c(COP(=O)(O)O)c(C=O)c1O [Example 36, 6-[3-(2-(1,4,5,6-Tetrahydropyrimidyl)carbamoyl)phenylazo]-pyridoxal-5-phosphate] | 6.2 |  |  |  | 
Cc1nc(N=Nc2ccc(C#N)cc2)c(COP(=O)(O)O)c(C=O)c1O [Example 42, 6-(4-Cyanophenylazo)-pyridoxal-5-phosphate] |  |  | >100 | 11.3 | 
Cc1nc(N=Nc2ccc(C(N)=O)cc2)c(COP(=O)(O)O)c(C=O)c1O [Example 43, 6-(4-Carbamoylphenylazo)-pyridoxal-5-phosphate] | 8.7 |  |  |  | 
Cc1nc(N=Nc2ccc(S(=O)(=O)Nc3ccccc3F)cc2)c(COP(=O)(O)O)c(C=O)c1O [Example 44, 6-[4-(2-Fluorophenylsulfamoyl)phenylazo]pyridoxal-5-phosphate] | 7.7 |  |  |  | 
Cc1nc(N=Nc2ccc(S(=O)(=O)Nc3cccc(F)c3)cc2)c(COP(=O)(O)O)c(C=O)c1O [Example 45, 6-[4-(3-Fluorophenylsulfamoyl)phenylazo]-pyridoxal-5-phosphate] | 10.5 |  |  |  | 
Cc1nc(N=Nc2ccc(S(=O)(=O)Nc3ccc(F)cc3)cc2)c(COP(=O)(O)O)c(C=O)c1O [Example 46, 6-[4-(4-Fluorophenylsulfamoyl)phenylazo]-pyridoxal-5-phosphate] |  |  | 32 | 1.5 | 
Cc1nc(N=Nc2ccc(S(=O)(=O)Nc3ncccn3)cc2)c(COP(=O)(O)O)c(C=NO)c1O [Example 53, 6-[4-(2-Pyrimidylsulfamoyl)phenylazo]-pyridoxal-5-phosphate Oxime] | 2 | 15 |  |  | 
